These compounds were tested on NCI-H522 (assay: Growth inhibition of human NCI-H522 cells assessed as cell growth at 10 uM incubated for 48 hrs by sulforhodamine B assay relative to control). Conditions: NCI-H522, 48 h, read-out: Activity.
Type: functional

Compound	growth at 10 µM
Cc1oc2ncnc(Nc3cccc(F)c3)c2c1C(=O)NCCO	88.4%
CCOC(=O)c1c(C)oc2ncnc(Nc3ccc(F)c(Cl)c3)c12	74.6%

These compounds were tested on SK-MEL-2 (assay: Growth inhibition of human SK-MEL-2 cells assessed as cell growth at 10 uM incubated for 48 hrs by sulforhodamine B assay relative to control). Conditions: SK-MEL-2, 48 h, read-out: Activity.
Type: functional

Compound	growth at 10 µM
Cc1oc2ncnc(Nc3cccc(F)c3)c2c1C(=O)NCCO	103%
CCOC(=O)c1c(C)oc2ncnc(Nc3ccc(F)c(Cl)c3)c12	95.5%

What follows are compounds tested on PC-3 (assay: Growth inhibition of human PC3 cells assessed as cell growth at 10 uM incubated for 48 hrs by sulforhodamine B assay relative to control). Conditions: PC-3, 48 h, read-out: Activity.
Type: functional

Compound	growth at 10 µM
Cc1oc2ncnc(Nc3cccc(F)c3)c2c1C(=O)NCCO	111%
CCOC(=O)c1c(C)oc2ncnc(Nc3ccc(F)c(Cl)c3)c12	85.6%

What follows are compounds tested on BT-549 (assay: Growth inhibition of human BT549 cells assessed as cell growth at 10 uM incubated for 48 hrs by sulforhodamine B assay relative to control). Conditions: BT-549, 48 h, read-out: Activity.
Type: functional

Compound	growth at 10 µM
Cc1oc2ncnc(Nc3cccc(F)c3)c2c1C(=O)NCCO	96.3%
CCOC(=O)c1c(C)oc2ncnc(Nc3ccc(F)c(Cl)c3)c12	101%

These compounds were tested on SN12C (assay: Growth inhibition of human SN12C cells assessed as cell growth at 10 uM incubated for 48 hrs by sulforhodamine B assay relative to control). Conditions: read-out: Activity.
Type: functional

Compound	growth at 10 µM
Cc1oc2ncnc(Nc3cccc(F)c3)c2c1C(=O)NCCO	98.7%
CCOC(=O)c1c(C)oc2ncnc(Nc3ccc(F)c(Cl)c3)c12	92.2%

These compounds were tested on SF-268 (assay: Growth inhibition of human SF268 cells assessed as cell growth at 10 uM incubated for 48 hrs by sulforhodamine B assay relative to control). Conditions: SF-268, 48 h, read-out: Activity.
Type: functional

Compound	growth at 10 µM
Cc1oc2ncnc(Nc3cccc(F)c3)c2c1C(=O)NCCO	101%
CCOC(=O)c1c(C)oc2ncnc(Nc3ccc(F)c(Cl)c3)c12	97.6%

The compounds below were run on NCI-H23 (assay: Growth inhibition of human NCI-H23 cells assessed as cell growth at 10 uM incubated for 48 hrs by sulforhodamine B assay relative to control). Conditions: NCI-H23, 48 h, read-out: Activity.
Type: functional

Compound	growth at 10 µM
Cc1oc2ncnc(Nc3cccc(F)c3)c2c1C(=O)NCCO	99.6%
CCOC(=O)c1c(C)oc2ncnc(Nc3ccc(F)c(Cl)c3)c12	88%

Each compound was assayed on TK-10 (assay: Growth inhibition of human TK10 cells assessed as cell growth at 10 uM incubated for 48 hrs by sulforhodamine B assay relative to control). Conditions: TK-10, 48 h, read-out: Activity.
Type: functional

Compound	growth at 10 µM
Cc1oc2ncnc(Nc3cccc(F)c3)c2c1C(=O)NCCO	90.1%
CCOC(=O)c1c(C)oc2ncnc(Nc3ccc(F)c(Cl)c3)c12	114%

Each compound was assayed on A549 (assay: Growth inhibition of human A549/ATCC cells assessed as cell growth at 10 uM incubated for 48 hrs by sulforhodamine B assay relative to control). Conditions: A549, 48 h, read-out: Activity.
Type: functional

Compound	growth at 10 µM
Cc1oc2ncnc(Nc3cccc(F)c3)c2c1C(=O)NCCO	91%
CCOC(=O)c1c(C)oc2ncnc(Nc3ccc(F)c(Cl)c3)c12	86.9%

Each compound was assayed on OVCAR-3 (assay: Growth inhibition of human OVCAR3 cells assessed as cell growth at 10 uM incubated for 48 hrs by sulforhodamine B assay relative to control). Conditions: OVCAR-3, 48 h, read-out: Activity.
Type: functional

Compound	growth at 10 µM
Cc1oc2ncnc(Nc3cccc(F)c3)c2c1C(=O)NCCO	107%
CCOC(=O)c1c(C)oc2ncnc(Nc3ccc(F)c(Cl)c3)c12	116%

Each compound was assayed on HL-60(TB) (assay: Growth inhibition of human HL-60(TB) cells assessed as cell growth at 10 uM incubated for 48 hrs by sulforhodamine B assay relative to control). Conditions: HL-60, 48 h, read-out: Activity.
Type: functional

Compound	growth at 10 µM
CCOC(=O)c1c(C)oc2ncnc(Nc3ccc(F)c(Cl)c3)c12	101%

The compounds below were run on SF-295 (assay: Growth inhibition of human SF295 cells assessed as cell growth at 10 uM incubated for 48 hrs by sulforhodamine B assay relative to control). Conditions: SF-295, 48 h, read-out: Activity.
Type: functional

Compound	growth at 10 µM
CCOC(=O)c1c(C)oc2ncnc(Nc3ccc(F)c(Cl)c3)c12	97%

What follows are compounds tested on Malme-3M (assay: Growth inhibition of human MALME-3M cells assessed as cell growth at 10 uM incubated for 48 hrs by sulforhodamine B assay relative to control). Conditions: read-out: Activity.
Type: functional

Compound	growth at 10 µM
Cc1oc2ncnc(Nc3cccc(F)c3)c2c1C(=O)NCCO	118%
CCOC(=O)c1c(C)oc2ncnc(Nc3ccc(F)c(Cl)c3)c12	114%

What follows are compounds tested on SNB-19 (assay: Growth inhibition of human SNB19 cells assessed as cell growth at 10 uM incubated for 48 hrs by sulforhodamine B assay relative to control). Conditions: SNB-19, 48 h, read-out: Activity.
Type: functional

Compound	growth at 10 µM
Cc1oc2ncnc(Nc3cccc(F)c3)c2c1C(=O)NCCO	104%
CCOC(=O)c1c(C)oc2ncnc(Nc3ccc(F)c(Cl)c3)c12	100%

Each compound was assayed on HCC 2998 (assay: Growth inhibition of human HCC2998 cells assessed as cell growth at 10 uM incubated for 48 hrs by sulforhodamine B assay relative to control). Conditions: HCC 2998, 48 h, read-out: Activity.
Type: functional

Compound	growth at 10 µM
Cc1oc2ncnc(Nc3cccc(F)c3)c2c1C(=O)NCCO	114%
CCOC(=O)c1c(C)oc2ncnc(Nc3ccc(F)c(Cl)c3)c12	109%

The compounds below were run on OVCAR-4 (assay: Growth inhibition of human OVCAR4 cells assessed as cell growth at 10 uM incubated for 48 hrs by sulforhodamine B assay relative to control). Conditions: OVCAR-4, 48 h, read-out: Activity.
Type: functional

Compound	growth at 10 µM
Cc1oc2ncnc(Nc3cccc(F)c3)c2c1C(=O)NCCO	108%
CCOC(=O)c1c(C)oc2ncnc(Nc3ccc(F)c(Cl)c3)c12	118%

These compounds were tested on RXF 393 (assay: Growth inhibition of human RXF393 cells assessed as cell growth at 10 uM incubated for 48 hrs by sulforhodamine B assay relative to control). Conditions: RXF 393, 48 h, read-out: Activity.
Type: functional

Compound	growth at 10 µM
Cc1oc2ncnc(Nc3cccc(F)c3)c2c1C(=O)NCCO	109%
CCOC(=O)c1c(C)oc2ncnc(Nc3ccc(F)c(Cl)c3)c12	101%

What follows are compounds tested on RPMI-8226 (assay: Growth inhibition of human RPMI8226 cells assessed as cell growth at 10 uM incubated for 48 hrs by sulforhodamine B assay relative to control). Conditions: RPMI-8226, 48 h, read-out: Activity.
Type: functional

Compound	growth at 10 µM
Cc1oc2ncnc(Nc3cccc(F)c3)c2c1C(=O)NCCO	106%
CCOC(=O)c1c(C)oc2ncnc(Nc3ccc(F)c(Cl)c3)c12	101%

Each compound was assayed on HCT-116 (assay: Growth inhibition of human HCT116 cells assessed as cell growth at 10 uM incubated for 48 hrs by sulforhodamine B assay relative to control). Conditions: HCT-116, 48 h, read-out: Activity.
Type: functional

Compound	growth at 10 µM
Cc1oc2ncnc(Nc3cccc(F)c3)c2c1C(=O)NCCO	105%
CCOC(=O)c1c(C)oc2ncnc(Nc3ccc(F)c(Cl)c3)c12	103%

The compounds below were run on HOP-92 (assay: Growth inhibition of human HOP92 cells assessed as cell growth at 10 uM incubated for 48 hrs by sulforhodamine B assay relative to control). Conditions: HOP-92, 48 h, read-out: Activity.
Type: functional

Compound	growth at 10 µM
Cc1oc2ncnc(Nc3cccc(F)c3)c2c1C(=O)NCCO	101%
CCOC(=O)c1c(C)oc2ncnc(Nc3ccc(F)c(Cl)c3)c12	72.1%

These compounds were tested on MDA-MB-435 (assay: Growth inhibition of human MDA-MB-435 cells assessed as cell growth at 10 uM incubated for 48 hrs by sulforhodamine B assay relative to control). Conditions: MDA-MB-435, 48 h, read-out: Activity.
Type: functional

Compound	growth at 10 µM
Cc1oc2ncnc(Nc3cccc(F)c3)c2c1C(=O)NCCO	108%
CCOC(=O)c1c(C)oc2ncnc(Nc3ccc(F)c(Cl)c3)c12	114%

Each compound was assayed on MCF7 (assay: Growth inhibition of human MCF7 cells assessed as cell growth at 10 uM incubated for 48 hrs by sulforhodamine B assay relative to control). Conditions: MCF7, 48 h, read-out: Activity.
Type: functional

Compound	growth at 10 µM
CCOC(=O)c1c(C)oc2ncnc(Nc3ccc(F)c(Cl)c3)c12	104%

Each compound was assayed on HT-29 (assay: Growth inhibition of human HT-29 cells assessed as cell growth at 10 uM incubated for 48 hrs by sulforhodamine B assay relative to control). Conditions: HT-29, 48 h, read-out: Activity.
Type: functional

Compound	growth at 10 µM
Cc1oc2ncnc(Nc3cccc(F)c3)c2c1C(=O)NCCO	96.8%
CCOC(=O)c1c(C)oc2ncnc(Nc3ccc(F)c(Cl)c3)c12	92.8%

What follows are compounds tested on NCI-H322M (assay: Growth inhibition of human NCI-H322M cells assessed as cell growth at 10 uM incubated for 48 hrs by sulforhodamine B assay relative to control). Conditions: read-out: Activity.
Type: functional

Compound	growth at 10 µM
Cc1oc2ncnc(Nc3cccc(F)c3)c2c1C(=O)NCCO	104%
CCOC(=O)c1c(C)oc2ncnc(Nc3ccc(F)c(Cl)c3)c12	101%

What follows are compounds tested on ACHN (assay: Growth inhibition of human ACHN cells assessed as cell growth at 10 uM incubated for 48 hrs by sulforhodamine B assay relative to control). Conditions: read-out: Activity.
Type: functional

Compound	growth at 10 µM
Cc1oc2ncnc(Nc3cccc(F)c3)c2c1C(=O)NCCO	103%
CCOC(=O)c1c(C)oc2ncnc(Nc3ccc(F)c(Cl)c3)c12	112%

What follows are compounds tested on EKVX (assay: Growth inhibition of human EKVX cells assessed as cell growth at 10 uM incubated for 48 hrs by sulforhodamine B assay relative to control). Conditions: read-out: Activity.
Type: functional

Compound	growth at 10 µM
CCOC(=O)c1c(C)oc2ncnc(Nc3ccc(F)c(Cl)c3)c12	108%

The compounds below were run on U-251 (assay: Growth inhibition of human U251 cells assessed as cell growth at 10 uM incubated for 48 hrs by sulforhodamine B assay relative to control). Conditions: U-251, 48 h, read-out: Activity.
Type: functional

Compound	growth at 10 µM
Cc1oc2ncnc(Nc3cccc(F)c3)c2c1C(=O)NCCO	104%
CCOC(=O)c1c(C)oc2ncnc(Nc3ccc(F)c(Cl)c3)c12	91.8%

These compounds were tested on 786-0 (assay: Growth inhibition of human 786-0 cells assessed as cell growth at 10 uM incubated for 48 hrs by sulforhodamine B assay relative to control). Conditions: 786-0, 48 h, read-out: Activity.
Type: functional

Compound	growth at 10 µM
Cc1oc2ncnc(Nc3cccc(F)c3)c2c1C(=O)NCCO	93%
CCOC(=O)c1c(C)oc2ncnc(Nc3ccc(F)c(Cl)c3)c12	104%

The compounds below were run on MDA-MB-231 (assay: Growth inhibition of human MDA-MB-231 cells assessed as cell growth at 10 uM incubated for 48 hrs by sulforhodamine B assay relative to control). Conditions: MDA-MB-231, 48 h, read-out: Activity.
Type: functional

Compound	growth at 10 µM
Cc1oc2ncnc(Nc3cccc(F)c3)c2c1C(=O)NCCO	91.2%
CCOC(=O)c1c(C)oc2ncnc(Nc3ccc(F)c(Cl)c3)c12	101%

What follows are compounds tested on MDA-MB-468 (assay: Growth inhibition of human MDA-MB-468 cells assessed as cell growth at 10 uM incubated for 48 hrs by sulforhodamine B assay relative to control). Conditions: MDA-MB-468, 48 h, read-out: Activity.
Type: functional

Compound	growth at 10 µM
Cc1oc2ncnc(Nc3cccc(F)c3)c2c1C(=O)NCCO	106%
CCOC(=O)c1c(C)oc2ncnc(Nc3ccc(F)c(Cl)c3)c12	112%

Each compound was assayed on MOLT-4 (assay: Growth inhibition of human MOLT4 cells assessed as cell growth at 10 uM incubated for 48 hrs by sulforhodamine B assay relative to control). Conditions: MOLT-4, 48 h, read-out: Activity.
Type: functional

Compound	growth at 10 µM
CCOC(=O)c1c(C)oc2ncnc(Nc3ccc(F)c(Cl)c3)c12	99.2%

What follows are compounds tested on SW-620 (assay: Growth inhibition of human SW620 cells assessed as cell growth at 10 uM incubated for 48 hrs by sulforhodamine B assay relative to control). Conditions: SW-620, 48 h, read-out: Activity.
Type: functional

Compound	growth at 10 µM
Cc1oc2ncnc(Nc3cccc(F)c3)c2c1C(=O)NCCO	103%
CCOC(=O)c1c(C)oc2ncnc(Nc3ccc(F)c(Cl)c3)c12	101%

What follows are compounds tested on Hs-578T (assay: Growth inhibition of human Hs 578T cells assessed as cell growth at 10 uM incubated for 48 hrs by sulforhodamine B assay relative to control). Conditions: read-out: Activity.
Type: functional

Compound	growth at 10 µM
Cc1oc2ncnc(Nc3cccc(F)c3)c2c1C(=O)NCCO	103%
CCOC(=O)c1c(C)oc2ncnc(Nc3ccc(F)c(Cl)c3)c12	97%

Source: ChEMBL document CHEMBL4251615, “Discovery of anilino-furo[2,3-d]pyrimidine derivatives as dual inhibitors of EGFR/HER2 tyrosine kinase and their anticancer activity” (Eur J Med Chem, 2018)
